Columns and labels:
Assay in all cases: relative viability (nuclei count vs DMSO), 5 days (fraction); higher = more cells survive
[1] = test system: ABC-1
In short: (§1)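 Relative viability divides the nuclei count in treated wells by that in vehicle wells. Lung cancer cell lines were seeded in 1536-well plates, dosed by pin tool the next day, and fixed and stained after 5 days in one step with final 0.05% Triton X-100, 1% formaldehyde and 1 ug/ml Hoechst. Dosing was a single drug or a fixed anchor-drug dose plus five library-drug doses (not always all listed) in √10 steps, and values are medians of duplicate plates imaged at 4×.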

[2] = test system: NCI-H838
In short: as §1

[3] = test system: NCI-H460
In short: as §1

[4] = test system: PC-14
In short: as §1

[5] = test system: HCC-15
In short: as §1

[6] = test system: NCI-H2085
In short: as §1

[7] = test system: NCI-H1651
In short: as §1

[8] = test system: NCI-H1993
In short: as §1

[9] = test system: NCI-H358
In short: as §1

[10] = test system: NCI-H1915
In short: as §1

[11] = test system: EPLC-272H
In short: as §1

[12] = test system: LC-2-ad
In short: as §1

[13] = test system: NCI-H2126
In short: as §1

[14] = test system: HARA
In short: as §1

[15] = test system: NCI-H650
In short: as §1

[16] = test system: LU99A
In short: as §1

[17] = test system: NCI-H522
In short: as §1

[18] = test system: NCI-H2347
In short: as §1

[19] = test system: HCC-78
In short: as §1

[20] = test system: NCI-H2342
In short: as §1

C[C@@H]1CN(CC(=O)Nc2ccc3c(c2)Cc2cccc(-c4cc(=O)cc(N5CCOCC5)o4)c2S3)C[C@H](C)O1 + NC(=O)Nc1cc(-c2cccc(F)c2)sc1C(=O)N[C@H]1CCCNC1 [AZD7762] (partner 0.2 µM)
relative viability ([1]; first compound 0.1265 µM): 0.742 | relative viability ([1]; first compound 0.4 µM): 1.52 | relative viability ([1]; first compound 4 µM): 0.971 | relative viability ([2]; first compound 0.04 µM): 0.802 | relative viability ([2]; first compound 0.1265 µM): 0.909 | relative viability ([2]; first compound 0.4 µM): 0.992 | relative viability ([2]; first compound 4 µM): 0.861 | relative viability ([3]; first compound 0.04 µM): 0.617 | relative viability ([3]; first compound 0.1265 µM): 0.638 | relative viability ([3]; first compound 0.4 µM): 0.63 | relative viability ([3]; first compound 4 µM): 0.368 | relative viability ([4]; first compound 0.04 µM): 0.289 | relative viability ([4]; first compound 0.1265 µM): 0.308 | relative viability ([4]; first compound 0.4 µM): 0.32 | relative viability ([4]; first compound 4 µM): 0.276 | relative viability ([5]; first compound 0.04 µM): 1.18 | relative viability ([5]; first compound 0.1265 µM): 1.06 | relative viability ([5]; first compound 0.4 µM): 1.37 | relative viability ([5]; first compound 4 µM): 1.05 | relative viability ([6]; first compound 0.04 µM): 0.959 | relative viability ([6]; first compound 0.1265 µM): 1.06 | relative viability ([6]; first compound 0.4 µM): 0.997 | relative viability ([6]; first compound 4 µM): 0.796 | relative viability ([7]; first compound 0.04 µM): 0.428 | relative viability ([7]; first compound 0.1265 µM): 0.405 | relative viability ([7]; first compound 0.4 µM): 0.464 | relative viability ([7]; first compound 4 µM): 0.38 | relative viability ([8]; first compound 0.04 µM): 0.752 | relative viability ([8]; first compound 0.1265 µM): 0.737 | relative viability ([8]; first compound 0.4 µM): 0.611 | relative viability ([8]; first compound 4 µM): 0.55 | relative viability ([9]; first compound 0.04 µM): 0.463 | relative viability ([9]; first compound 0.1265 µM): 0.416 | relative viability ([9]; first compound 0.4 µM): 0.539 | relative viability ([9]; first compound 4 µM): 0.365 | relative viability ([10]; first compound 0.04 µM): 0.575 | relative viability ([10]; first compound 0.1265 µM): 0.727 | relative viability ([10]; first compound 0.4 µM): 0.735 | relative viability ([10]; first compound 4 µM): 0.515 | relative viability ([11]; first compound 0.04 µM): 0.237 | relative viability ([11]; first compound 0.1265 µM): 0.348 | relative viability ([11]; first compound 0.4 µM): 0.226 | relative viability ([11]; first compound 4 µM): 0.321 | relative viability ([12]; first compound 0.04 µM): 0.838 | relative viability ([12]; first compound 0.1265 µM): 0.758 | relative viability ([12]; first compound 0.4 µM): 0.86 | relative viability ([12]; first compound 4 µM): 0.807 | relative viability ([13]; first compound 0.04 µM): 0.91 | relative viability ([13]; first compound 0.1265 µM): 1.02 | relative viability ([13]; first compound 0.4 µM): 0.964 | relative viability ([13]; first compound 4 µM): 1.02 | relative viability ([14]; first compound 0.04 µM): 0.296 | relative viability ([14]; first compound 0.1265 µM): 0.259 | relative viability ([14]; first compound 0.4 µM): 0.227 | relative viability ([14]; first compound 4 µM): 0.329 | relative viability ([15]; first compound 0.04 µM): 0.981 | relative viability ([15]; first compound 0.1265 µM): 0.853 | relative viability ([15]; first compound 0.4 µM): 1.21 | relative viability ([15]; first compound 4 µM): 0.895 | relative viability ([16]; first compound 0.04 µM): 0.334 | relative viability ([16]; first compound 0.1265 µM): 0.472 | relative viability ([16]; first compound 0.4 µM): 0.465 | relative viability ([16]; first compound 4 µM): 0.363 | relative viability ([17]; first compound 0.04 µM): 0.526 | relative viability ([17]; first compound 0.1265 µM): 0.743 | relative viability ([17]; first compound 0.4 µM): 0.908 | relative viability ([17]; first compound 4 µM): 0.814 | relative viability ([18]; first compound 0.04 µM): 0.811 | relative viability ([18]; first compound 0.1265 µM): 0.913 | relative viability ([18]; first compound 0.4 µM): 0.625 | relative viability ([18]; first compound 4 µM): 0.611 | relative viability ([19]; first compound 0.04 µM): 0.502 | relative viability ([19]; first compound 0.1265 µM): 0.642 | relative viability ([19]; first compound 0.4 µM): 0.479 | relative viability ([19]; first compound 4 µM): 0.66 | relative viability ([20]; first compound 0.04 µM): 0.499 | relative viability ([20]; first compound 0.1265 µM): 0.495 | relative viability ([20]; first compound 0.4 µM): 0.492 | relative viability ([20]; first compound 4 µM): 0.441

CC(C)Oc1cc(Nc2nc(N[C@@H](C)c3ccc(F)cn3)ncc2Cl)n[nH]1 [AZ23] + NC(=O)Nc1cc(-c2cccc(F)c2)sc1C(=O)N[C@H]1CCCNC1 [AZD7762] (partner 0.2 µM)
relative viability ([1]; first compound 0.03162 µM): 1.23 | relative viability ([1]; first compound 0.3162 µM): 0.835 | relative viability ([2]; first compound 0.01 µM): 0.934 | relative viability ([2]; first compound 0.03162 µM): 1.05 | relative viability ([2]; first compound 0.3162 µM): 0.991 | relative viability ([3]; first compound 0.01 µM): 0.722 | relative viability ([3]; first compound 0.03162 µM): 0.751 | relative viability ([3]; first compound 0.3162 µM): 0.799 | relative viability ([4]; first compound 0.01 µM): 0.326 | relative viability ([4]; first compound 0.03162 µM): 0.339 | relative viability ([4]; first compound 0.3162 µM): 0.375 | relative viability ([5]; first compound 0.01 µM): 1.43 | relative viability ([5]; first compound 0.03162 µM): 1.34 | relative viability ([5]; first compound 0.3162 µM): 1.35 | relative viability ([6]; first compound 0.01 µM): 0.923 | relative viability ([6]; first compound 0.03162 µM): 0.975 | relative viability ([6]; first compound 0.3162 µM): 1.08 | relative viability ([7]; first compound 0.01 µM): 0.376 | relative viability ([7]; first compound 0.03162 µM): 0.541 | relative viability ([7]; first compound 0.3162 µM): 0.623 | relative viability ([8]; first compound 0.01 µM): 0.703 | relative viability ([8]; first compound 0.03162 µM): 0.749 | relative viability ([8]; first compound 0.3162 µM): 0.965 | relative viability ([9]; first compound 0.01 µM): 0.447 | relative viability ([9]; first compound 0.03162 µM): 0.653 | relative viability ([9]; first compound 0.3162 µM): 0.514 | relative viability ([10]; first compound 0.01 µM): 0.758 | relative viability ([10]; first compound 0.03162 µM): 0.737 | relative viability ([10]; first compound 0.3162 µM): 0.796 | relative viability ([11]; first compound 0.03162 µM): 0.254 | relative viability ([11]; first compound 0.3162 µM): 0.251 | relative viability ([12]; first compound 0.01 µM): 1.04 | relative viability ([12]; first compound 0.03162 µM): 1.05 | relative viability ([12]; first compound 0.3162 µM): 1.02 | relative viability ([13]; first compound 0.01 µM): 1.04 | relative viability ([13]; first compound 0.03162 µM): 1.07 | relative viability ([13]; first compound 0.3162 µM): 1.07 | relative viability ([14]; first compound 0.01 µM): 0.252 | relative viability ([14]; first compound 0.03162 µM): 0.485 | relative viability ([14]; first compound 0.3162 µM): 0.534 | relative viability ([15]; first compound 0.01 µM): 0.954 | relative viability ([15]; first compound 0.03162 µM): 1.14 | relative viability ([15]; first compound 0.3162 µM): 1.12 | relative viability ([16]; first compound 0.01 µM): 0.269 | relative viability ([16]; first compound 0.03162 µM): 0.444 | relative viability ([16]; first compound 0.3162 µM): 0.507 | relative viability ([17]; first compound 0.01 µM): 0.935 | relative viability ([17]; first compound 0.03162 µM): 0.95 | relative viability ([17]; first compound 0.3162 µM): 0.809 | relative viability ([18]; first compound 0.01 µM): 0.718 | relative viability ([18]; first compound 0.03162 µM): 0.818 | relative viability ([18]; first compound 0.3162 µM): 0.782 | relative viability ([19]; first compound 0.01 µM): 0.516 | relative viability ([19]; first compound 0.03162 µM): 0.697 | relative viability ([19]; first compound 0.3162 µM): 0.681 | relative viability ([20]; first compound 0.01 µM): 0.442 | relative viability ([20]; first compound 0.03162 µM): 0.569 | relative viability ([20]; first compound 0.3162 µM): 0.483

Reference: the supplement of paper PMC10307832
